Values joined by “and” are separate entries in the source; they are usually repeats but may differ in a detail not shown here. Equal values may be shown once. Active and inactive are the calls of the source.
Assays:
[1] = biological target: Broad substrate specificity ATP-binding cassette transporter ABCG2 (Homo sapiens, UniProt Q9UNQ0); assay: ABCG2 efflux pump inhibitors, dose response, Ig-MXP3 cells, flow cytometry (AID 1690); type: functional
[2] = biological target: ATP-dependent translocase ABCB1 (Homo sapiens, UniProt P08183); assay: ABCB1 efflux pump inhibitor potency, dose response, Jurkat-DNR cells, JC-1, flow cytometry (AID 1689); type: functional
fMet-Leu-Phe receptor = fMet-Leu-Phe receptor (Homo sapiens, UniProt P21462); assay: FPR ligands, dose response (AID 519); type: functional
Cytochrome P450 2C9 = Cytochrome P450 2C9 (Homo sapiens, UniProt P11712)
[3] = biological target: Long-chain-fatty-acid--AMP ligase FadD28 (Mycobacterium tuberculosis, UniProt P9WQ59); assay: Fluorescence polarization aasay to screen for inhibitors that compete for the binding of FadD28 to a bisubstrate Measured in Biochemical System Using Plate Reader - 2147-01_Inhibitor_Dose_CherryPick_Activity.; type: functional, Mycobacterium tuberculosis H37Rv
[4] = biological target: DNA dC->dU-editing enzyme APOBEC-3G (Homo sapiens, UniProt Q9HC16); assay: Dose Response confirmation of small molecule APOBEC3G DNA Deaminase Inhibitors via a fluorescence-based single-stranded DNA deaminase assay. [Related pubchem assays (depositor defined):AID493012, AID493028]; type: functional
Beta-lactamase [5] = biological target: T1, Beta-lactamase (Pseudomonas aeruginosa, UniProt Q79MP6); assay: […] counterscreen for selective VIM-2 inhibitors: dose response biochemical high throughput screening assay to identify inhibitors of IMP-1 metallo-beta-lactamase.
[6] = biological target: DNA dC->dU-editing enzyme APOBEC-3A (Homo sapiens, UniProt P31941); assay: APOBEC3A DNA deaminase inhibitors, dose response, biochemical (AID 504722); type: functional
Beta-lactamase [7] = biological target: T1, Beta-lactamase; assay: IMP-1 metallo-beta-lactamase inhibitors, dose response, selectivity assay for VIM-2 inhibitor project, biochemical, epi-absorbance (AID 1920)
Beta-lactamase [8] = biological target: Beta-lactamase (Salmonella choleraesuis (strain SC-B67), UniProt Q5J463); assay: Epi-absorbance-based counterscreen for selective VIM-2 inhibitors: dose response biochemical high throughput screening assay to identify inhibitors of TEM-1 serine-beta-lactamase.
[9] = HIV Env cell-cell fusion inhibitors, dose response, HIV entry, plate reader, dry powder (AID 687023); type: functional, cell-based
[10] = off-target signal loss in HeLa-CEM21 co-culture – HeLa F-luc CTL cells, cherry-picked, counter-screen for HIV-1 Env fusion inhibitor project, dose response (AID 652040); type: functional, cell-based;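 note: potency for signal decrease marking cytotoxic or nonspecific inhibition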
[11] = ZM109 Env clade C HIV-1 fusion inhibitors, dose response, HeLa effector, CEM target cells, luciferase, cherry-pick (AID 652058); type: functional, cell-based
[12] = inhibitors of clade B AD8 Env fusion, dose response, cell-based, cherry-pick (AID 652062); type: functional;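 note: luciferase signal from cell-cell fusion driven by HIV-1 clade B AD8 Env; potency is for inhibitors of fusion seen as a drop in luminescence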
[13] = CEM21 cell cytotoxicity, dose response, cytotoxicity control, plate reader, dry powder (AID 687026); type: functional, cell-based
[14] = inhibitors of HIV Env-driven cell fusion, dose response, cherry-pick (AID 652057); type: functional, cell-based
[15] = HeLa cell cytotoxicity, dose response, cytotoxicity control, 24 h, plate reader, dry powder (AID 686928); type: functional, cell-based
[16] = biological target: Matrix metalloproteinase-14 (Homo sapiens, UniProt P50281); assay: Dose Response confirmation of uHTS hits for a small molecule inhibitors of MT1-MMP activation in a fluorescence assay set 1.; type: functional
[17] = HEK293T cell cytotoxicity, dose response, cytotoxicity control for HIV Vif inhibitor project, cherry-picks (AID 652208); type: functional, cell-based
BHK-21 = assay: BHK-21 cell toxicity, dose response, cytotoxicity control, plate reader, cherry-pick samples (AID 687030); type: functional, cell-based; settings: Mesocricetus auratus
A549 = assay: A549 cell toxicity, dose response, cytotoxicity control, plate reader, cherry-pick samples (AID 687028); type: functional, cell-based; settings: Homo sapiens
[18] = biological target: NAD-dependent protein deacylase sirtuin-5, mitochondrial (Homo sapiens, UniProt Q9NXA8); assay: SIRT5 desuccinylase inhibitors, dose response, biochemical, fluorescence imaging, cherry-pick, set 5 (AID 720591);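 note: desuccinylation of succinyl peptide AMC substrate read as fluorescence after trypsin release; potency of inhibitors that lower fluorescence and may act on trypsin instead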
NAD-dependent protein deacylase sirtuin-5, mitochondrial, sequence (Q9NXA8 whole entry): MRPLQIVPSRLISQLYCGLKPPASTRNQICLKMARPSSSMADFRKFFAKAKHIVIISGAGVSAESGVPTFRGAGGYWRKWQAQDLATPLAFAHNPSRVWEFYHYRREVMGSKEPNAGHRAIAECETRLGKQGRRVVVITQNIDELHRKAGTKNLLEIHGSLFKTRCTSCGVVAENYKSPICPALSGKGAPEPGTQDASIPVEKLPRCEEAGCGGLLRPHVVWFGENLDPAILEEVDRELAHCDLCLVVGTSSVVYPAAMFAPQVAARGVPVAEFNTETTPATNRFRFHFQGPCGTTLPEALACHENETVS

T1 sequence (Q79MP6 whole entry): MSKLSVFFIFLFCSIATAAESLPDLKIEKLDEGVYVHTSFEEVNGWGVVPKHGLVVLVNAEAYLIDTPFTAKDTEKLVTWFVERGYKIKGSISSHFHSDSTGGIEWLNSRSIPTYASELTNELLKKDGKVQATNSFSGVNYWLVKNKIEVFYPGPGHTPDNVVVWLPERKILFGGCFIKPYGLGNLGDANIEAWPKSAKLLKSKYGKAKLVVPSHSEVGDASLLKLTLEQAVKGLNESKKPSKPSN
Broad substrate specificity ATP-binding cassette transporter ABCG2, sequence (Q9UNQ0 whole entry): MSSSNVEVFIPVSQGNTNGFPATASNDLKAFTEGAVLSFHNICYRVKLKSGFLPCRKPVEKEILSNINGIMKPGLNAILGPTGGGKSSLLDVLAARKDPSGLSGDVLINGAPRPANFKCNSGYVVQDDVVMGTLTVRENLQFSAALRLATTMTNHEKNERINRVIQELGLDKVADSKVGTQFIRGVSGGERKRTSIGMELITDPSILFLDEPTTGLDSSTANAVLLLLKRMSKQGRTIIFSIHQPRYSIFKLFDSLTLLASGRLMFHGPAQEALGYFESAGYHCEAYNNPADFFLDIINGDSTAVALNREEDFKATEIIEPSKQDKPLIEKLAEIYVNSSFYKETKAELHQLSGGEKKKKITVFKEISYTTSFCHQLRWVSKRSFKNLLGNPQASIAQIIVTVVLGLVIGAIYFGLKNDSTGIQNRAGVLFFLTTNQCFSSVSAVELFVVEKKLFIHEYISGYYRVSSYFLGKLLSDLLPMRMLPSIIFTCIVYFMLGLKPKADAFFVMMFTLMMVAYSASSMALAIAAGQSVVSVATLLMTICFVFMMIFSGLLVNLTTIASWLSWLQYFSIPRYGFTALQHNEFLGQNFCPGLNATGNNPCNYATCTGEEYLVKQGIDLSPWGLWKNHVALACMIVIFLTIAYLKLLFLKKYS
fMet-Leu-Phe receptor, sequence (P21462 whole entry): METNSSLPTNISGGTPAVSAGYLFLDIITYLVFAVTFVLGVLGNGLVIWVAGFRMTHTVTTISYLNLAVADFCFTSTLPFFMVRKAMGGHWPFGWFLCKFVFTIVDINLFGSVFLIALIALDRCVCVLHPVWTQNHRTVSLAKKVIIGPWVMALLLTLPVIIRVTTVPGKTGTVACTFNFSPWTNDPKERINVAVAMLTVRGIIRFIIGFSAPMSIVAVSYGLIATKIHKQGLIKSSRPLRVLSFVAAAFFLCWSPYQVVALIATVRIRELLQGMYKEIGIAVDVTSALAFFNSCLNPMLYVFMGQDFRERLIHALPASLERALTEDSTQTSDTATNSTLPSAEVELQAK
DNA dC->dU-editing enzyme APOBEC-3G, sequence (Q9HC16 whole entry): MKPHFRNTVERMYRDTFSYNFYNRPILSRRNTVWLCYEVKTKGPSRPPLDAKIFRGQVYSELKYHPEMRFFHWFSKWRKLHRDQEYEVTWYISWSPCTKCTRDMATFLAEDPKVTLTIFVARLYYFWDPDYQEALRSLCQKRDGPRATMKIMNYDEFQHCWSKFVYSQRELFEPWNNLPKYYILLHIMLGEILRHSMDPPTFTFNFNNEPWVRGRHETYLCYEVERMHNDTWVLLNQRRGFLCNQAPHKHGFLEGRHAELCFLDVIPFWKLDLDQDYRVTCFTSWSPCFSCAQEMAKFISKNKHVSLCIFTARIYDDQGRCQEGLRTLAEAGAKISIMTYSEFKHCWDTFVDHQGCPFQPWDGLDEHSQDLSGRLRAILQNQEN
Cytochrome P450 2C9, sequence (P11712 whole entry): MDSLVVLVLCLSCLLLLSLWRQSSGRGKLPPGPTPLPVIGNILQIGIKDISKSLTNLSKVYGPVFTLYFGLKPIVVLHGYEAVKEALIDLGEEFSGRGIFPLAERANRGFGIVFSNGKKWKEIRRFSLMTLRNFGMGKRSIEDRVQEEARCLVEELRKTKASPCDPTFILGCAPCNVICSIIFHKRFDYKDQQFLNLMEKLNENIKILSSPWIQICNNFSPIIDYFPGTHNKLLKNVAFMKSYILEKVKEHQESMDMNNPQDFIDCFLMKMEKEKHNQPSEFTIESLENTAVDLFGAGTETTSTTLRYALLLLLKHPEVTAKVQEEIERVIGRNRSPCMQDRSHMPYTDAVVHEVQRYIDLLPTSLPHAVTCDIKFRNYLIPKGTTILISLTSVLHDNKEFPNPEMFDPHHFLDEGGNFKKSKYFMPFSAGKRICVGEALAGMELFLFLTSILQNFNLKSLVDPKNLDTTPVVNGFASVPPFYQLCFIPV
Beta-lactamase (Salmonella choleraesuis (strain SC-B67), UniProt Q5J463), sequence (Q5J463 whole entry, the tested form may be a part): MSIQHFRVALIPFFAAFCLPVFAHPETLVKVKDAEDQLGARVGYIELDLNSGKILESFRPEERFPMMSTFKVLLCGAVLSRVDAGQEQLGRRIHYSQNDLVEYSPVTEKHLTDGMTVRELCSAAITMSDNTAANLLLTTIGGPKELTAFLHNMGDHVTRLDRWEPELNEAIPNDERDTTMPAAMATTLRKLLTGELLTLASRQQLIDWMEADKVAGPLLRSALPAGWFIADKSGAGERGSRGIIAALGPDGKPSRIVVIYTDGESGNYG
DNA dC->dU-editing enzyme APOBEC-3A, sequence (P31941 whole entry): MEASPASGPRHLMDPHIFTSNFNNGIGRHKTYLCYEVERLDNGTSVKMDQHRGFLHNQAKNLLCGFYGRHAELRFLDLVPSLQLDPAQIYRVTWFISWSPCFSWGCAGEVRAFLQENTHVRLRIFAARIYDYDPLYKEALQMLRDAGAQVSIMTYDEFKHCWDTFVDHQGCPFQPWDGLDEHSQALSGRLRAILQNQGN
Long-chain-fatty-acid--AMP ligase FadD28, sequence (P9WQ59 whole entry): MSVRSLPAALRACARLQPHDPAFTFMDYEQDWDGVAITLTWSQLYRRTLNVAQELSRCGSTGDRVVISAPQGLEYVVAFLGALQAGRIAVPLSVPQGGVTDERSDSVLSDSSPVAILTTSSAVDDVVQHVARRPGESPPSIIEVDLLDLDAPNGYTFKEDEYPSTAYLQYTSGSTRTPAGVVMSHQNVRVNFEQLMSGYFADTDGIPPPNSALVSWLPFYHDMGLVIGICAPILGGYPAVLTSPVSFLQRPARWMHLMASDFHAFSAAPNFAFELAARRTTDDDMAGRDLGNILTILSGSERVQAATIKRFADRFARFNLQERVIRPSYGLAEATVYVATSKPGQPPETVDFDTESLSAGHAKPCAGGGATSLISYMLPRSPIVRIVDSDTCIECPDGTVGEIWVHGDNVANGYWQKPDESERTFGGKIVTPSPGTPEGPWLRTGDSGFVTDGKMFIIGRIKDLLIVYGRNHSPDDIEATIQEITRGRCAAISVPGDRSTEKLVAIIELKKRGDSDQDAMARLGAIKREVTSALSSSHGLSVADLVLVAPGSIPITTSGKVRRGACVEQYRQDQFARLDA
ATP-dependent translocase ABCB1, sequence (P08183 whole entry): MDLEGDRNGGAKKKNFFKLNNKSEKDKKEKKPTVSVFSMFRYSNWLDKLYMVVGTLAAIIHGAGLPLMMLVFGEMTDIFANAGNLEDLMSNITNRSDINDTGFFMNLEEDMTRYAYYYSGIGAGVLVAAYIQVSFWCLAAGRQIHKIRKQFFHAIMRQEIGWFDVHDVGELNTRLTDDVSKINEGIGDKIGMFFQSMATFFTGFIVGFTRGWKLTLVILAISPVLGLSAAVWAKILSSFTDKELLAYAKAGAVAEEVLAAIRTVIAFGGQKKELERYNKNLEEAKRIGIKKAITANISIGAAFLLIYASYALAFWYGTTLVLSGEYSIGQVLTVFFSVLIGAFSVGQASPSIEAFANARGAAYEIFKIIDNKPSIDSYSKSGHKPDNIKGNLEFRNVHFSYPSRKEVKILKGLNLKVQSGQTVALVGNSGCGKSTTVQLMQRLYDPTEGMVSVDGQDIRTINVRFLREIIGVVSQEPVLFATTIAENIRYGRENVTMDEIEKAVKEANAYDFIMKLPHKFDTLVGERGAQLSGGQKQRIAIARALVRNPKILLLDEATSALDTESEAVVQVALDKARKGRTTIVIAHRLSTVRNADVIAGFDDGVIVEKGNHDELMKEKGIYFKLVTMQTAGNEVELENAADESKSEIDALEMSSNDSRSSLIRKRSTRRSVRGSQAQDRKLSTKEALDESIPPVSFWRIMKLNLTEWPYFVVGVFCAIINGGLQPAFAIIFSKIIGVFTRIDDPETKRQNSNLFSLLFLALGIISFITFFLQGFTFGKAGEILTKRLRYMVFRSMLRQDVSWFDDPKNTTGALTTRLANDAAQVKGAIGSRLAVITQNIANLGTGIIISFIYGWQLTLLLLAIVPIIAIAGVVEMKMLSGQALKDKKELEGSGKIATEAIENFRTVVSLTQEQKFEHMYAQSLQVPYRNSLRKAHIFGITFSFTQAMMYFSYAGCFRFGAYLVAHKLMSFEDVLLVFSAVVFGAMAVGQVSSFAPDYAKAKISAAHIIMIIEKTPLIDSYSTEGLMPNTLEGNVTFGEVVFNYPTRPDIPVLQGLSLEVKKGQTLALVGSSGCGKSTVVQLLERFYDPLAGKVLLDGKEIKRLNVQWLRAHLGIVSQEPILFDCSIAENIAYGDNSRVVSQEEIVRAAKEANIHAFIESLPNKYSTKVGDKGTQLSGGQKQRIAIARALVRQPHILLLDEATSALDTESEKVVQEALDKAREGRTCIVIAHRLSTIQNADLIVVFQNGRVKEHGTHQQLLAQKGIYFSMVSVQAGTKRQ

CN(C)c1ccc(P(=O)(Nc2cccc(C(F)(F)F)c2)N2CCOCC2)c(NC(=O)c2cccs2)c1 (configuration not stated)
EC50 [1]: 1.21 µM (inactive)
EC50 [2]: 0.286 µM (active)

Cc1ccc(C2C(C(=O)c3ccc(Cl)cc3)=C(O)C(=O)N2CC2CCCO2)o1 (configuration not stated)
Ki (fMet-Leu-Phe receptor): 11.6 µM (active)
AC50 (Cytochrome P450 2C9): 22.4 µM (inconclusive)

COc1ccc(OC)c(C2=NOC(C(=O)Nc3cccc(C(C)=O)c3)C2)c1 (configuration not stated)
AC50 [3]: 34.6 µM (active)

C=C(C)Cn1c(-c2cccs2)n[nH]c1=S
IC50 [4]: 7.53 µM (active)
IC50 (Beta-lactamase [5]): > 59.6 µM (inactive)
IC50 [6]: > 100 µM (inactive)
IC50 (Beta-lactamase [7]): > 59.6 µM (inactive)
IC50 (Beta-lactamase [8]): > 59.6 µM (inactive)

Cc1ccc2c(CN3CCN(S(=O)(=O)c4ccc5c(c4)OCCO5)CC3)cc(=O)oc2c1C
AC50 [9]: 3.95 µM (active) and 5.68 µM (active) and 3.52 µM (active)
AC50 [10]: > 70 µM (inactive)
AC50 [11]: 0.424 µM (active)
AC50 [12]: 4.06 µM (active)
AC50 [13]: > 70 µM (inactive)
AC50 [14]: 4.58 µM (active)

O=C(Nc1nnc(-c2ccc(Cl)cc2)o1)C1CCCCC1
AC50 [15]: > 160 µM (inactive)

Nc1ccc(NC(=O)c2ccccc2)c2c1C(=O)c1ccccc1C2=O
IC50 [16]: 19.5 µM (active)

COC(=O)N1C(=O)[C@](c2ccc(Cl)cc2)(C(C)C)N1C(=O)OC
AC50 [17]: 18.7 µM (active)

COc1cc(NC(=O)c2nccn2C)cc(C(=O)Nc2cccc(C(F)(F)F)c2)c1
AC50 (BHK-21): 26.2 µM (active)
AC50 (A549): 19.7 µM (active)

CCCCC(=O)Nc1ccc2c(c1)nc(CCNC(=O)c1ccco1)n2C
AC50 [18]: > 30 µM (inactive)
